Reference: the OligoGym collection
HELM strings list units from the 5' end as sugar, base in round brackets, then linkage (d deoxyribose, r ribose, m 2'-O-methyl, p phosphodiester). Strings are as the collection lists them; they lack the last nucleoside at the 3' end of the tested compound. [moe] = 2'-O-(2-methoxyethyl) (MOE); [sp] = phosphorothioate linkage; [m5C] = 5-methylcytosine

target: SMN2; experiment: mouse, dose not given; details: ASO

Row | Substance | 3 h FOB score
1 | RNA1{[moe]([m5C])[sp].[moe](A)p.[moe]([m5C])p.[moe](T)p.[moe](T)p.[moe](T)[sp].[moe]([m5C])[sp].[moe](A)[sp].[moe](T)[sp].[moe](A)[sp].[moe](A)[sp].[moe](T)[sp].[moe](G)p.[moe]([m5C])p.[moe](T)p.[moe](G)[sp].[moe](G)}$$$$ (last 3' nucleoside missing) | 0 score 0-7
2 | RNA1{[moe]([m5C])[sp].[moe](T)[sp].[moe](T)[sp].[moe](T)[sp].[moe]([m5C])[sp].[moe](A)[sp].[moe](T)[sp].[moe](A)[sp].[moe](A)[sp].[moe](T)[sp].[moe](G)[sp].[moe]([m5C])[sp].[moe](T)[sp].[moe](G)[sp].[moe](G)}$$$$ (last 3' nucleoside missing) | 2.88 score 0-7
3 | RNA1{[moe]([m5C])[sp].[moe](T)[sp].[moe](T)[sp].[moe](T)[sp].[moe]([m5C])[sp].[moe](A)[sp].[moe](T)[sp].[moe](A)[sp].[moe](A)[sp].[moe](T)p.[moe](G)p.[moe]([m5C])p.[moe](T)p.[moe](G)[sp].[moe](G)}$$$$ (last 3' nucleoside missing) | 0 score 0-7
4 | RNA1{[moe]([m5C])[sp].[moe](T)[sp].[moe](T)[sp].[moe](T)[sp].[moe]([m5C])[sp].[moe](A)[sp].[moe](T)[sp].[moe](A)[sp].[moe](A)p.[moe](T)p.[moe](G)p.[moe]([m5C])p.[moe](T)[sp].[moe](G)[sp].[moe](G)}$$$$ (last 3' nucleoside missing) | 0 score 0-7
5 | RNA1{[moe]([m5C])[sp].[moe](T)[sp].[moe](T)[sp].[moe](T)[sp].[moe]([m5C])[sp].[moe](A)[sp].[moe](T)p.[moe](A)p.[moe](A)p.[moe](T)[sp].[moe](G)[sp].[moe]([m5C])[sp].[moe](T)[sp].[moe](G)[sp].[moe](G)}$$$$ (last 3' nucleoside missing) | 2 score 0-7
6 | RNA1{[moe]([m5C])[sp].[moe](T)[sp].[moe](T)[sp].[moe](T)[sp].[moe]([m5C])[sp].[moe](A)[sp].[moe](T)p.[moe](A)p.[moe](A)p.[moe](T)p.[moe](G)[sp].[moe]([m5C])[sp].[moe](T)[sp].[moe](G)[sp].[moe](G)}$$$$ (last 3' nucleoside missing) | 0.75 score 0-7
7 | RNA1{[moe]([m5C])[sp].[moe](T)[sp].[moe](T)[sp].[moe](T)[sp].[moe]([m5C])[sp].[moe](A)p.[moe](T)p.[moe](A)p.[moe](A)p.[moe](T)p.[moe](G)[sp].[moe]([m5C])[sp].[moe](T)[sp].[moe](G)[sp].[moe](G)}$$$$ (last 3' nucleoside missing) | 1 score 0-7
8 | RNA1{[moe]([m5C])[sp].[moe](T)[sp].[moe](T)[sp].[moe](T)[sp].[moe]([m5C])[sp].[moe](A)p.[moe](T)p.[moe](A)p.[moe](A)p.[moe](T)p.[moe](G)p.[moe]([m5C])[sp].[moe](T)[sp].[moe](G)[sp].[moe](G)}$$$$ (last 3' nucleoside missing) | 0.75 score 0-7
9 | RNA1{[moe]([m5C])[sp].[moe](T)[sp].[moe](T)[sp].[moe](T)[sp].[moe]([m5C])p.[moe](A)p.[moe](T)p.[moe](A)p.[moe](A)[sp].[moe](T)[sp].[moe](G)[sp].[moe]([m5C])[sp].[moe](T)[sp].[moe](G)[sp].[moe](G)}$$$$ (last 3' nucleoside missing) | 1 score 0-7
10 | RNA1{[moe]([m5C])[sp].[moe](T)[sp].[moe](T)[sp].[moe](T)[sp].[moe]([m5C])p.[moe](A)p.[moe](T)p.[moe](A)p.[moe](A)p.[moe](T)p.[moe](G)p.[moe]([m5C])[sp].[moe](T)[sp].[moe](G)[sp].[moe](G)}$$$$ (last 3' nucleoside missing) | 0 score 0-7
11 | RNA1{[moe]([m5C])[sp].[moe](T)[sp].[moe](T)[sp].[moe](T)p.[moe]([m5C])[sp].[moe](A)[sp].[moe](T)[sp].[moe](A)p.[moe](A)[sp].[moe](T)[sp].[moe](G)[sp].[moe]([m5C])p.[moe](T)[sp].[moe](G)[sp].[moe](G)}$$$$ (last 3' nucleoside missing) | 0.75 score 0-7
12 | RNA1{[moe]([m5C])[sp].[moe](T)[sp].[moe](T)p.[moe](T)[sp].[moe]([m5C])[sp].[moe](A)[sp].[moe](T)[sp].[moe](A)[sp].[moe](A)[sp].[moe](T)[sp].[moe](G)[sp].[moe]([m5C])[sp].[moe](T)p.[moe](G)[sp].[moe](G)}$$$$ (last 3' nucleoside missing) | 0.5 score 0-7
13 | RNA1{[moe]([m5C])[sp].[moe](T)[sp].[moe](T)p.[moe](T)[sp].[moe]([m5C])[sp].[moe](A)p.[moe](T)[sp].[moe](A)[sp].[moe](A)p.[moe](T)[sp].[moe](G)[sp].[moe]([m5C])p.[moe](T)[sp].[moe](G)[sp].[moe](G)}$$$$ (last 3' nucleoside missing) | 0 score 0-7
14 | RNA1{[moe]([m5C])[sp].[moe](T)[sp].[moe](T)p.[moe](T)[sp].[moe]([m5C])[sp].[moe](A)p.[moe](T)[sp].[moe](A)[sp].[moe](A)p.[moe](T)[sp].[moe](G)p.[moe]([m5C])[sp].[moe](T)p.[moe](G)[sp].[moe](G)}$$$$ (last 3' nucleoside missing) | 0 score 0-7
15 | RNA1{[moe]([m5C])[sp].[moe](T)[sp].[moe](T)p.[moe](T)[sp].[moe]([m5C])p.[moe](A)[sp].[moe](T)p.[moe](A)[sp].[moe](A)p.[moe](T)[sp].[moe](G)p.[moe]([m5C])[sp].[moe](T)p.[moe](G)[sp].[moe](G)}$$$$ (last 3' nucleoside missing) | 0.25 score 0-7
16 | RNA1{[moe]([m5C])[sp].[moe](T)[sp].[moe](T)p.[moe](T)p.[moe]([m5C])p.[moe](A)p.[moe](T)[sp].[moe](A)[sp].[moe](A)[sp].[moe](T)[sp].[moe](G)[sp].[moe]([m5C])[sp].[moe](T)[sp].[moe](G)[sp].[moe](G)}$$$$ (last 3' nucleoside missing) | 0 score 0-7
17 | RNA1{[moe]([m5C])[sp].[moe](T)p.[moe](T)p.[moe](T)[sp].[moe]([m5C])[sp].[moe](A)[sp].[moe](T)[sp].[moe](A)[sp].[moe](A)[sp].[moe](T)[sp].[moe](G)[sp].[moe]([m5C])p.[moe](T)p.[moe](G)[sp].[moe](G)}$$$$ (last 3' nucleoside missing) | 0.25 score 0-7
18 | RNA1{[moe]([m5C])[sp].[moe](T)p.[moe](T)p.[moe](T)p.[moe]([m5C])[sp].[moe](A)[sp].[moe](T)[sp].[moe](A)[sp].[moe](A)[sp].[moe](T)[sp].[moe](G)[sp].[moe]([m5C])p.[moe](T)p.[moe](G)[sp].[moe](G)}$$$$ (last 3' nucleoside missing) | 0 score 0-7
19 | RNA1{[moe]([m5C])[sp].[moe](T)p.[moe](T)p.[moe](T)p.[moe]([m5C])[sp].[moe](A)[sp].[moe](T)[sp].[moe](A)[sp].[moe](A)[sp].[moe](T)[sp].[moe](G)p.[moe]([m5C])p.[moe](T)p.[moe](G)[sp].[moe](G)}$$$$ (last 3' nucleoside missing) | 0 score 0-7
20 | RNA1{[moe]([m5C])[sp].[moe](T)p.[moe](T)p.[moe](T)p.[moe]([m5C])p.[moe](A)[sp].[moe](T)[sp].[moe](A)[sp].[moe](A)[sp].[moe](T)[sp].[moe](G)p.[moe]([m5C])p.[moe](T)p.[moe](G)[sp].[moe](G)}$$$$ (last 3' nucleoside missing) | 0 score 0-7
21 | RNA1{[moe]([m5C])p.[moe](T)[sp].[moe]([m5C])[sp].[moe](A)[sp].[moe]([m5C])[sp].[moe](T)[sp].[moe](T)[sp].[moe](T)[sp].[moe]([m5C])[sp].[moe](A)[sp].[moe](T)[sp].[moe](A)[sp].[moe](A)[sp].[moe](T)[sp].[moe](G)[sp].[moe]([m5C])[sp].[moe](T)[sp].[moe](G)}$$$$ (last 3' nucleoside missing) | 3.5 score 0-7
